According to publication PMC8725837, “2-Arylquinolines as novel anticancer agents with dual EGFR/FAK kinase inhibitory activity: synthesis, biological evaluation, and molecular modelling insights” (Journal of Enzyme Inhibition and Medicinal Chemistry, 2021):

What was measured:
[1] = biological target: T1, FRK (Homo sapiens, UniProt P42685); assay: Z`-LYTE kinase profiling, FRK; assay type: biochemical
T1 construct: purchased Invitrogen/Life Technologies

[2] = system: MDMBA-231 breast cancer cell line; assay: MTT antiproliferative assay, MDMBA-231; assay type: cell-based; settings: 10 µM, 24 h
Protocol: (§1) At least, three independent experiments were performed.

[3] = system: HeLa cervical cancer cell line; assay: MTT antiproliferative assay, HeLa; assay type: cell-based; settings: 10 µM, 24 h
Protocol: as §1

[4] = biological target: EGFR (Homo sapiens, UniProt P00533); assay: Z`-LYTE kinase inhibitory assay, EGFR
[5] = biological target: FAK (Homo sapiens, UniProt Q05397); assay: Z`-LYTE kinase inhibitory assay, FAK
[6] = biological target: T2, recombinant human TOP1 (Homo sapiens, UniProt P11387); assay: Topoisomerase I-mediated DNA cleavage assay; settings: tested at 0.1, 1, 10, 100 µM
T2 sequence (P11387 1-765): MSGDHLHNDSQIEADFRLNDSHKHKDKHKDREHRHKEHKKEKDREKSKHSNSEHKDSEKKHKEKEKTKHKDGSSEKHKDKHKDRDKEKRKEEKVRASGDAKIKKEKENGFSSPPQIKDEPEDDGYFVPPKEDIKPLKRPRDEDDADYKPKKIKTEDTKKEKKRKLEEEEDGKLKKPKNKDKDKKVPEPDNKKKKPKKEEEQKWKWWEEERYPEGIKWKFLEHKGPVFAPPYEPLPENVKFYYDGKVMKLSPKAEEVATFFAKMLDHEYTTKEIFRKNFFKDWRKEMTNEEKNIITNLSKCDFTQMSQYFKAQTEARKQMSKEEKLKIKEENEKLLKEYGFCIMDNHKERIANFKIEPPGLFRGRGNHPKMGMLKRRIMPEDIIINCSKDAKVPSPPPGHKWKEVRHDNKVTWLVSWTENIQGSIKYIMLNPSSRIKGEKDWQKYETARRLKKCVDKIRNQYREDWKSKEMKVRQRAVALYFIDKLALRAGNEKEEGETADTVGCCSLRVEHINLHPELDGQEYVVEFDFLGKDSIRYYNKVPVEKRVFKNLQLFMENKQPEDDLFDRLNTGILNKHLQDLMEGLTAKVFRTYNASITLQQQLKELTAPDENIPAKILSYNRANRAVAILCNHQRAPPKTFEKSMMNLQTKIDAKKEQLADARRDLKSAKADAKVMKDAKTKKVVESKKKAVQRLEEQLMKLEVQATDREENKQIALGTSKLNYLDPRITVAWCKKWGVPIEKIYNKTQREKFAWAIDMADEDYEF
Protocol: Radiolabeled DNA was incubated with recombinant human TOP1 in 20 µL reaction buffer (10 mmol/L Tris-HCl, pH 7.5, 50 mmol/L KCl, 5 mmol/L MgCl2, 0.1 mmol/L EDTA, and 15 µg/mL BSA) at 30 °C for 20 min in the presence of the indicated drug concentrations. Reactions were terminated by adding SDS (0.5% final concentration) followed by the addition of two volumes of loading dye (80% formamide, 10 mmol/L sodium hydroxide, 1 mmol/L sodium EDTA, 0.1% xylene cyanol, and 0.1% bromophenol blue). Aliquots of reaction mixtures were subjected to 20% denaturing PAGE. Gels were dried and visualised by using PhosphorImager and Image Quant software (Molecular Dynamics).

[7] = biological target: T3, c-Src (Homo sapiens, UniProt P12931); assay: Z`-LYTE kinase profiling, c-Src; assay type: biochemical
T3 construct: purchased Invitrogen/Life Technologies

[8] = system: HCT-116 colorectal cancer cell line; assay: MTT antiproliferative assay, HCT-116; settings: for GI% HCT-116: 10 µM, 24 h, MTT; for IC50: Homo sapiens, HCT-116, 24 h, read-out: IC50 HCT-116 (half maximal growth inhibitory concentration)
[9] = biological target: T4, HER-2 (Homo sapiens, UniProt P04626); assay: Z`-LYTE kinase profiling, HER-2; assay type: biochemical
T4 construct: purchased Invitrogen/Life Technologies

[10] = biological target: T5, VEGFR-2 (Homo sapiens, UniProt P35968); assay: Z`-LYTE kinase profiling, VEGFR-2; assay type: biochemical
T5 construct: purchased Invitrogen/Life Technologies

[11] = system: MCF-7 breast cancer cell line; assay: MTT antiproliferative assay, MCF-7; assay type: cell-based; settings: 10 µM, 24 h
Protocol: as §1

[12] = biological target: T6, BTK (Homo sapiens, UniProt Q06187); assay: Z`-LYTE kinase profiling, BTK; assay type: biochemical
T6 construct: purchased Invitrogen/Life Technologies

[13] = biological target: T7, VEGFR-1 (Homo sapiens, UniProt P17948); assay: Z`-LYTE kinase profiling, VEGFR-1; assay type: biochemical
T7 construct: purchased Invitrogen/Life Technologies

[14] = system: DLD-1 colorectal cancer cell line; assay: MTT antiproliferative assay, DLD-1; settings: for GI% DLD1: 10 µM, 24 h, MTT; for IC50: Homo sapiens, DLD-1, 24 h, read-out: IC50 DLD1 (half maximal growth inhibitory concentration)
Protocol: After the incubation of the tested compounds for 24 h, the percent growth inhibition (GI%) was calculated.
Cells were seeded at 1 × 10^4 cells/well and cultured overnight in a 96-well plate. […] Then, 150 µl DMSO was used to solubilise MTT formazan crystals. Finally, the plates were shaken, and the optical density was determined at 570 nm using ELISA plate reader. At least, three independent experiments were performed. Percentage of growth inhibition was determined as (1-[OD of treated cells/OD of control cells]). […] The IC50 values were calculated using Prism v0.8 software (GraphPad Software Inc., La Jolla, CA).

[15] = biological target: T8, IGF-1R (Homo sapiens, UniProt P08069); assay: Z`-LYTE kinase profiling, IGF-1R; assay type: biochemical
T8 construct: purchased Invitrogen/Life Technologies

[16] = system: DLD-1 colorectal cancer cell line; assay: Annexin V-FITC/propidium iodide apoptosis assay (AV/PI); assay type: cell-based; settings: 3 µM, 24 h; control 7%
Protocol: Also, compounds 6f, 6i, 16d, and 20f exerted potential apoptotic effect elevating the total percentage of apoptotic cells to 84.33, 71.66, 51.66, and 80.66%, respectively.
Flow cytometric analysis was conducted using FACS Calibur flow cytometer (BD Biosciences, San Jose, CA, USA).

T8 sequence (P08069 31-1367): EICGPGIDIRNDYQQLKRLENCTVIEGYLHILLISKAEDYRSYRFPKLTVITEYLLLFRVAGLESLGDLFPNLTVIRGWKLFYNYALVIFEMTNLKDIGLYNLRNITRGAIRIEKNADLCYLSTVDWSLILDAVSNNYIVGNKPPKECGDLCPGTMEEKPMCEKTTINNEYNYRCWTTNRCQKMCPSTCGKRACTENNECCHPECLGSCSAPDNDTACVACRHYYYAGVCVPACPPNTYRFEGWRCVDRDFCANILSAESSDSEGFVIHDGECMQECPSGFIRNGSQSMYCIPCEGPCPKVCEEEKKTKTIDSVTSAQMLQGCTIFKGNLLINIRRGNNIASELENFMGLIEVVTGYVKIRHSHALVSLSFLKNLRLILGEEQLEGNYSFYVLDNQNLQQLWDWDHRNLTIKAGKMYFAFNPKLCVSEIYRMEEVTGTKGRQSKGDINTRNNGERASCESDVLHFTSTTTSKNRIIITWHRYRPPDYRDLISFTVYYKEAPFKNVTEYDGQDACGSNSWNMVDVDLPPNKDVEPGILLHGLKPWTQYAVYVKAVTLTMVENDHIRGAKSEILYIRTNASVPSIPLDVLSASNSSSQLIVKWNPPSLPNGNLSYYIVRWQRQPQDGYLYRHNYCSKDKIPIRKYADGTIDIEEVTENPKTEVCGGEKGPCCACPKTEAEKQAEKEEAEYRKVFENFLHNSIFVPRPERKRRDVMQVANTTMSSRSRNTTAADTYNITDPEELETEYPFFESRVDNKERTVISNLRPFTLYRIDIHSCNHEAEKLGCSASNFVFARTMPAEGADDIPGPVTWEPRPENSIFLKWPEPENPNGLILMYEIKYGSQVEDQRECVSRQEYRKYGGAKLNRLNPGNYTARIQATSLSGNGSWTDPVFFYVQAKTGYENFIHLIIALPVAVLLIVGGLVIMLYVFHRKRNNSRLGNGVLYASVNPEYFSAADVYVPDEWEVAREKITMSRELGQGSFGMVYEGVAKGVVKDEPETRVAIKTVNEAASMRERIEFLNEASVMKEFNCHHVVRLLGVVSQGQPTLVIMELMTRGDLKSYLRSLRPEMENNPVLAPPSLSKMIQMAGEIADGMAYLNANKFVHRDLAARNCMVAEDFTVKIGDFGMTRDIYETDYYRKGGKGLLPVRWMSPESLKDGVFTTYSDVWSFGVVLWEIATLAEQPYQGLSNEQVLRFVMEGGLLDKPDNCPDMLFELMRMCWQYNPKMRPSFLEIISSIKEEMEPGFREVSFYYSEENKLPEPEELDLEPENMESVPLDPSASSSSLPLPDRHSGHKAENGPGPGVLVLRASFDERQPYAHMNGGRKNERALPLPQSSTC
T5 sequence (P35968 20-1356): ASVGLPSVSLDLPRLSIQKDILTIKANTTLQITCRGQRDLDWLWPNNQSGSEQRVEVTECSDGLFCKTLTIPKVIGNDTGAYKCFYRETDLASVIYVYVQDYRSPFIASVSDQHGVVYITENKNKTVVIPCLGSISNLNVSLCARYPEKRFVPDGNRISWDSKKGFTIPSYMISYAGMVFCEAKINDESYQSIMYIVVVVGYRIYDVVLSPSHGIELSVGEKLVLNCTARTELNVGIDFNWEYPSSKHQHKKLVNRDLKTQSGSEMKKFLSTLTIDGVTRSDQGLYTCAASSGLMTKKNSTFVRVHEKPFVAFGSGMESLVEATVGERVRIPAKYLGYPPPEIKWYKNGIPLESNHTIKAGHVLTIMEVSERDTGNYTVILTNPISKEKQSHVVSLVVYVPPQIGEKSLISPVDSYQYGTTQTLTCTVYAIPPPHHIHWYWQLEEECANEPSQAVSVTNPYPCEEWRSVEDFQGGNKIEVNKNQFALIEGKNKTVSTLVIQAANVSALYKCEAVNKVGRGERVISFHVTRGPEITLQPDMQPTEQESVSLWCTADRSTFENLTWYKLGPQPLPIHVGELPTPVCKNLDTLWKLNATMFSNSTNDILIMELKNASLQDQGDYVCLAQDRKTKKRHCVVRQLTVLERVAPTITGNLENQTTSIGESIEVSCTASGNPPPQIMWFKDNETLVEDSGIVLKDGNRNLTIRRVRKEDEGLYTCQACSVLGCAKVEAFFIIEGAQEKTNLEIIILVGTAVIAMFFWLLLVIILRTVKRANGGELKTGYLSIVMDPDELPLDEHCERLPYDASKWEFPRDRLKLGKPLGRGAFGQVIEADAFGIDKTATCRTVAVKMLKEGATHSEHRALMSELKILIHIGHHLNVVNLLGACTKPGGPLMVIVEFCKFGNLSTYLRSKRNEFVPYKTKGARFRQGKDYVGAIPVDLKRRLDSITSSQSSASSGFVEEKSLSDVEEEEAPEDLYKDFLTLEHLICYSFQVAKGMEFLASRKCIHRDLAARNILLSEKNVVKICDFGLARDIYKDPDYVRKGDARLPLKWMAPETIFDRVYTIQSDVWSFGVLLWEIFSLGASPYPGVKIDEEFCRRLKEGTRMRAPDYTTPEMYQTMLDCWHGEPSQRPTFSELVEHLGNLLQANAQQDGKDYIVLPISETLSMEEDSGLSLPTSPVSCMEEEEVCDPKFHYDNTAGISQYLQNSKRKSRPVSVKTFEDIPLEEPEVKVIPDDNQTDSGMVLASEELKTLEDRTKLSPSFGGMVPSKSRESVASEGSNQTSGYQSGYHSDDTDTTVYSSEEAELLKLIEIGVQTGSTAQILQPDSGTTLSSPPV
T3 sequence (P12931 whole entry): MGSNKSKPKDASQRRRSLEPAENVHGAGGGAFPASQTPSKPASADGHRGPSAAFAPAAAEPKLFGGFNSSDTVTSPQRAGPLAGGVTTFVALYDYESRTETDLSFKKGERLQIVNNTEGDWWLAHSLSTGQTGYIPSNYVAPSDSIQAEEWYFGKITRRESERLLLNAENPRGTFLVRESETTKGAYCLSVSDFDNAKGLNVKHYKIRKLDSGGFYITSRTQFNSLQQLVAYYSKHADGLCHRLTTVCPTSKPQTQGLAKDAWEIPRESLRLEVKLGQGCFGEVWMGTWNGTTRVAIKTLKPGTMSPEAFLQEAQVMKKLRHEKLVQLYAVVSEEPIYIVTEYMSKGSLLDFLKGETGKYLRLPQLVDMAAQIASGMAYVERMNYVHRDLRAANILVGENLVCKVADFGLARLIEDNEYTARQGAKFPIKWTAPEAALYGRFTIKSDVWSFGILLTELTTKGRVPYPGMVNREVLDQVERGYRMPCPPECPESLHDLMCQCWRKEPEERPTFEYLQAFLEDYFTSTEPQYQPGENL
Chain of EGFR (P00533 25-1210): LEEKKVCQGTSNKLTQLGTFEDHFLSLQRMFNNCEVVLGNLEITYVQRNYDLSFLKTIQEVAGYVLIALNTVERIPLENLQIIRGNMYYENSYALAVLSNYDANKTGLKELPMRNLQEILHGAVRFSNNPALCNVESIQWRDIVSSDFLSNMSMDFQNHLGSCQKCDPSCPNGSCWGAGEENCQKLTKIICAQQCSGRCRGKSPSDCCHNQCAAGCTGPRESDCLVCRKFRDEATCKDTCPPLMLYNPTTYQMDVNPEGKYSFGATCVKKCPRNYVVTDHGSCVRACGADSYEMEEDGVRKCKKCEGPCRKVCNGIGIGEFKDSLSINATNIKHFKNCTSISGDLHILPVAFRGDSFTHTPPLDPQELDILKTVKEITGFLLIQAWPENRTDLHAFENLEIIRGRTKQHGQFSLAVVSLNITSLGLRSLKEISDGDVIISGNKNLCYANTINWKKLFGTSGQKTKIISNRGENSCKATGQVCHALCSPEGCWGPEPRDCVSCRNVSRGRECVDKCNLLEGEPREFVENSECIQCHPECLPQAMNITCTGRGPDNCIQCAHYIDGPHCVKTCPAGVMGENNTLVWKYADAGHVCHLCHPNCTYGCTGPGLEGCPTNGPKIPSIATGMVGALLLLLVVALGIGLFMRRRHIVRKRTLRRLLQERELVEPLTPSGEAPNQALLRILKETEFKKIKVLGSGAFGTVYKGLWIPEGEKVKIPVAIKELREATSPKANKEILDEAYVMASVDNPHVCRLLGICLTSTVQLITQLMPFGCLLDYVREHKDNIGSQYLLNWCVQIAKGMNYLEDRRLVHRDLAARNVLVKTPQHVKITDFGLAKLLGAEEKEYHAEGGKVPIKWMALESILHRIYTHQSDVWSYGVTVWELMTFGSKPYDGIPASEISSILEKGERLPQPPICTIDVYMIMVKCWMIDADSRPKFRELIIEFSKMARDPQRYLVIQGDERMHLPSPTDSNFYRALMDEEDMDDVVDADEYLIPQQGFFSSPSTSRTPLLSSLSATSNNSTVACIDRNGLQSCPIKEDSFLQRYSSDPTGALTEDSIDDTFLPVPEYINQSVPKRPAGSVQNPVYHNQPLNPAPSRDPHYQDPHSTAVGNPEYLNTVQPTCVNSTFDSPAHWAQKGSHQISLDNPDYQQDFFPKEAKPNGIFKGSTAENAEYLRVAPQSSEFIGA
T1 sequence (P42685 whole entry): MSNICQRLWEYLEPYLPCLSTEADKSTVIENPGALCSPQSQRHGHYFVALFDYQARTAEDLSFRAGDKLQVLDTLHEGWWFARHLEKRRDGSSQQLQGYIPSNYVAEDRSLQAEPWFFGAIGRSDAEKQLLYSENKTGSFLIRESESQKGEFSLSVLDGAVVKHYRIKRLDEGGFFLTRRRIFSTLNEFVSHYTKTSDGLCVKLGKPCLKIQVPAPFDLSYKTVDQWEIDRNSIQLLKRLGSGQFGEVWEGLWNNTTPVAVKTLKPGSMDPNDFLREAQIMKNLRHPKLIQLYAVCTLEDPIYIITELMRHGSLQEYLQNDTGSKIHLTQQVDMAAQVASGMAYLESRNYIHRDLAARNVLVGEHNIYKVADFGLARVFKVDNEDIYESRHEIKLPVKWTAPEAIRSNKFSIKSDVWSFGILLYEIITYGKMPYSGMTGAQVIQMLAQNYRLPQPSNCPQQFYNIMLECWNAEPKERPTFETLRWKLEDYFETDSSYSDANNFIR

Row | Compound | IC50 [1] | GI% MDMBA-231 [2] | GI% Hela [3] | IC50 [4] | IC50 [5] | TOP1 inhibitory activity (semiquantitative score relative to 1 µM CPT) [6] | IC50 [7] | GI% HCT-116 [8] | IC50 [8] | IC50 [9] | IC50 [10] | GI% MCF-7 [11] | IC50 [12] | IC50 [13] | GI% DLD1 [14] | IC50 [14] | fold superior activity compared to Gefitinib, DLD-1 ([14]; from IC50 values) | IC50 [15] | total percentage of AV positive apoptotic DLD-1 cells [16] | melting point
1 | COc1cc2nc(-c3ccc(C(F)(F)F)cc3)cc(OCCCN3CCN(C)CC3)c2cc1OC [6f, 6,7-dimethoxy-4–(3-(4-methylpiperazin-1-yl)propoxy)-2–(4-(trifluoromethyl)phenyl)quin-oline] | 5050 nM | 75.34% | 69.17% | 25.4 ± 3.49 nM | 22.7 ± 2.38 nM | 0 | 3940 nM | 88.46% | 3090 ± 1050 nM | 639 nM | 1940 nM | 94.36% | 8790 nM | 1730 nM | 95.36% | 2250 ± 960 nM | 4 fold | 5350 nM | 84.33% | –
2 | FC(F)(F)c1ccc(-c2cc(OCCCN3CCOCC3)c3cc4c(cc3n2)OCO4)cc1 [12d, 8-(3-morpholinopropoxy)-6-(4-(trifluoromethyl)phenyl)-[1,3]dioxolo[4,5-g]quinoline] | 6530 nM | 9.36% | 36.67% | 450.2 ± 4.25 nM | 273 ± 2.84 nM | 0 | 1450 nM | 54.37% | 9200 ± 2490 nM | 897 nM | 855 nM | 26.54% | 653 nM | 2540 nM | 22.58% | 74900 ± 5460 nM | – | 453 nM | – | 138 to 140 °C
3 | Clc1ccc(-c2cc(OCCCn3ccnc3)c3cc(Br)ccc3n2)cc1 [16a, 4-(3-(1H-imidazol-1-yl)propoxy)-6-bromo-2-(4-chlorophenyl)quinoline] | 6150 nM | 51.24% | 47.35% | 222 ± 8.25 nM | 44.1 ± 3.26 nM | 0 | 1350 nM | 76.17% | 6150 ± 1300 nM | 2020 nM | 3410 nM | 22.97% | 4800 nM | 1960 nM | 60.08% | 8220 ± 1120 nM | – | 5230 nM | – | 149 to 151 °C
4 | Clc1ccc(-c2cc(OCCCN3CCOCC3)c3cc(Br)ccc3n2)cc1 [16b, 4-(3-((6-bromo-2-(4-chlorophenyl)quinolin-4-yl)oxy)propyl)morpholine] | 3130 nM | 45.31% | 35.94% | 313 ± 15.3 nM | 50.4 ± 4.81 nM | 0 | 1320 nM | 87.61% | 4220 ± 1050 nM | 2310 nM | 3230 nM | 19.38% | 2880 nM | 1270 nM | 55.82% | 8690 ± 2640 nM | – | 3490 nM | – | 137 to 139 °C
5 | Fc1ccc(-c2cc(OCCCn3ccnc3)c3cc(Br)ccc3n2)cc1 [16c, 4-(3-(1H-imidazol-1-yl)propoxy)-6-bromo-2-(4-fluorophenyl)quinoline] | 6670 nM | 20.11% | 8.67% | 485 ± 11.4 nM | 224 ± 10.5 nM | + (+: 25–50% 1 µM CPT) | 1730 nM | 18.14% | 88000 ± 5240 nM | 1610 nM | 5100 nM | 4.36% | 5620 nM | 2560 nM | 12.25% | > 100000 nM | – | 6690 nM | – | 144 to 146 °C
6 | COc1ccc(-c2ccc3nc(-c4ccc(Cl)cc4)cc(OCCCn4ccnc4)c3c2)cc1 [20a, 4-(3-(1H-imidazol-1-yl)propoxy)-2-(4-chlorophenyl)-6-(4-methoxyphenyl)quinoline] | 2620 nM | 29.08% | 22.06% | 122 ± 9.4 nM | 77.3 ± 4.37 nM | 0 | 2900 nM | 36.71% | 24100 ± 2460 nM | 1010 nM | 1250 nM | 15.23% | 8670 nM | 1350 nM | 44.98% | 13000 ± 3690 nM | – | 2860 nM | – | 210 to 212 °C
7 | COc1ccc(-c2ccc3nc(-c4ccc(Cl)cc4)cc(OCCCN4CCOCC4)c3c2)cc1 [20b, 4-(3-((2-(4-chlorophenyl)-6-(4-methoxyphenyl)quinolin-4-yl)oxy)propyl)morpholine] | 8710 nM | 48.31% | 34.02% | 245 ± 12.3 nM | 63.2 ± 3.25 nM | 0 | 4210 nM | 71.05% | 7340 ± 1820 nM | 1650 nM | 2300 nM | 29.37% | 8980 nM | 4740 nM | 53.15% | 9650 ± 2150 nM | – | 8910 nM | – | 173 to 175 °C
8 | COc1ccc(-c2ccc3nc(-c4ccc(F)cc4)cc(OCCCn4ccnc4)c3c2)cc1 [20c, 4-(3-(1H-imidazol-1-yl)propoxy)-2-(4-fluorophenyl)-6-(4-methoxyphenyl)quinoline] | 1440 nM | 32.11% | 22.08% | 362 ± 5.26 nM | 91 ± 5.85 nM | 0 | 9050 nM | 38.64% | 12500 ± 3050 nM | 1230 nM | 8970 nM | 76.82% | 8670 nM | 1750 nM | 41.34% | 16000 ± 1100 nM | – | 1880 nM | – | 176 to 178 °C
9 | COc1ccc(-c2ccc3nc(-c4ccc(F)cc4)cc(OCCCN4CCOCC4)c3c2)cc1 [20d, 4-(3-((2-(4-fluorophenyl)-6-(4-methoxyphenyl)quinolin-4-yl)oxy)propyl)morpholine] | 133 nM | 27.05% | 11.97% | 147 ± 8.37 nM | 125 ± 3.15 nM | 0 | 251 nM | 36.91% | 29500 ± 4150 nM | 1770 nM | 294 nM | 15.34% | 1780 nM | 712 nM | 24.65% | 65300 ± 5360 nM | – | 41.2 nM | – | 168 to 170 °C
10 | Clc1ccc(-c2cc(OCCCn3ccnc3)c3cc(-c4ccco4)ccc3n2)cc1 [20e, 4-(3-(1H-imidazol-1-yl)propoxy)-2-(4-chlorophenyl)-6-(furan-2-yl)quinoline] | 216 nM | 56.29% | 65.73% | 33.7 ± 1.02 nM | 25.4 ± 3.48 nM | 0 | 138 nM | 89.64% | 4750 ± 1020 nM | 98.8 nM | 243 nM | 73.61% | 271 nM | 720 nM | 90.65% | 4460 ± 650 nM | – | 3010 nM | – | 130 to 132 °C
